Source: ChEMBL document CHEMBL2021790, “Pyridone methylsulfone hydroxamate LpxC inhibitors for the treatment of serious gram-negative infections” (J Med Chem, 2012)
In brackets after ≈: the same amount, converted by molar mass.

Experiments:
[1] = Thermodynamic solubility of the compound in thermosol at pH 3.0; type: physicochemical; settings: buffer, read-out: Therm_solubility
[2] = Thermodynamic solubility of the compound in thermosol at pH 9; type: physicochemical; settings: buffer, read-out: Therm_solubility
[3] = Fraction unbound in human plasma relative to untreated control; type: ADME, cell-free
[4] = Half life in rat at 10 mg/kg; type: ADME, organism-based; parameters: dose 10 mg/kg; settings: in vivo
[5] = Fraction unbound in rat plasma relative to untreated control; type: ADME, cell-free
[6] = tested on: Klebsiella pneumoniae; assay: microbe, parasite or virus in culture
Description: Antimicrobial activity against Klebsiella pneumoniae after 16 to 20 hrs by 2-fold microbroth dilution method

[7] = tested on: Rattus norvegicus; assay: Free AUC in rat at 10 mg/kg; type: ADME, organism-based; parameters: dose 10 mg/kg; settings: in vivo
[8] = Clearance in rat at 10 mg/kg; type: ADME, organism-based; parameters: dose 10 mg/kg; settings: in vivo
[9] = Volume of distribution at steady state in rat at 10 mg/kg; type: ADME, organism-based; parameters: dose 10 mg/kg; settings: in vivo, read-out: Vdss
[10] = tested on: Pseudomonas aeruginosa; assay: microbe, parasite or virus in culture
Description: Antimicrobial activity against Pseudomonas aeruginosa after 16 to 20 hrs by 2-fold microbroth dilution method

[11] = tested on: Citrobacter freundii; assay: microbe, parasite or virus in culture
Description: Antimicrobial activity against Citrobacter freundii after 16 to 20 hrs by 2-fold microbroth dilution method

[12] = AUC in rat at 10 mg/kg; type: ADME, organism-based; parameters: dose 10 mg/kg; settings: plasma
[13] = tested on: Klebsiella aerogenes; assay: microbe, parasite or virus in culture
Description: Antimicrobial activity against Enterobacter aerogenes after 16 to 20 hrs by 2-fold microbroth dilution method

[14] = tested on: Escherichia coli; assay: microbe, parasite or virus in culture
Description: Antimicrobial activity against Escherichia coli after 16 to 20 hrs by 2-fold microbroth dilution method

[15] = Thermodynamic solubility of the compound in thermosol at pH 7.4; type: physicochemical; settings: buffer, read-out: Therm_solubility
[16] = tested on: Pseudomonas aeruginosa; assay: Antimicrobial activity against Pseudomonas aeruginosa PA3919 with (delta(mexAB-OprM)delta(mexXY)delta(MexZ) phenotype after 16 to 20 hrs by 2-fold microbroth dilution method; type: functional
[17] = tested on: Acinetobacter sp.; assay: Antimicrobial activity against Acinetobacter sp. after 16 to 20 hrs by 2-fold microbroth dilution method; type: functional
[18] = tested on: Pseudomonas aeruginosa; assay: Antimicrobial activity against wild type Pseudomonas aeruginosa PA01 after 16 to 20 hrs by 2-fold microbroth dilution method; type: functional

SMILES	solubility thermodynamic [1]	solubility thermodynamic [2]	fraction unbound [3]	half-life [4]	fraction unbound [5]	MIC90 [6]	fAUC [7]	clearance [8]	Vd [9]	MIC90 [10]	MIC90 [11]	AUC [12]	MIC90 [13]	MIC90 [14]	solubility thermodynamic [15]	MIC [16]	MIC90 [17]	MIC [18]
C[C@@](CCc1ccc(-c2ccccc2)cc1)(C(=O)NO)S(C)(=O)=O	7.3 µg/mL (≈ 21 µM)	260 µg/mL (≈ 748 µM)	0.023	3.2 h	0.026	16 µg/mL (≈ 46.1 µM)	75 ng·h/mL	57 mL/min/kg	3.8 L/kg	4 µg/mL (≈ 11.5 µM)	8 µg/mL (≈ 23 µM)	2900 ng·h/mL	4 µg/mL (≈ 11.5 µM)	2 µg/mL (≈ 5.76 µM)	3.9 µg/mL (≈ 11.2 µM)	0.008 µg/mL (≈ 0.023 µM)	32 µg/mL (≈ 92.1 µM)	0.125 µg/mL (≈ 0.36 µM)
C[C@@](CCn1ccc(-c2ccccc2)cc1=O)(C(=O)NO)S(C)(=O)=O	410 µg/mL (≈ 1130 µM)	> 16000 µg/mL	0.14		0.28	16 µg/mL (≈ 43.9 µM)				2 µg/mL (≈ 5.49 µM)	8 µg/mL (≈ 22 µM)		16 µg/mL (≈ 43.9 µM)	8 µg/mL (≈ 22 µM)	480 µg/mL (≈ 1320 µM)	0.06 µg/mL (≈ 0.165 µM)	32 µg/mL (≈ 87.8 µM)	0.5 µg/mL (≈ 1.37 µM)
C[C@@](CCn1ccc(-c2ccc(-n3nccn3)cc2)cc1=O)(C(=O)NO)S(C)(=O)=O	3.3 µg/mL (≈ 7.65 µM)	2740 µg/mL (≈ 6350 µM)	0.25	0.94 h	0.13	0.125 µg/mL (≈ 0.29 µM)	680 ng·h/mL	32 mL/min/kg	0.92 L/kg	1 µg/mL (≈ 2.32 µM)	0.125 µg/mL (≈ 0.29 µM)	5200 ng·h/mL	0.125 µg/mL (≈ 0.29 µM)	0.06 µg/mL (≈ 0.139 µM)	9.2 µg/mL (≈ 21.3 µM)	0.015 µg/mL (≈ 0.0348 µM)	64 µg/mL (≈ 148 µM)	0.25 µg/mL (≈ 0.579 µM)
COc1ccc(-c2ccn(CC[C@](C)(C(=O)NO)S(C)(=O)=O)c(=O)c2)c(F)c1	82 µg/mL (≈ 199 µM)	> 14000 µg/mL	0.31	1.4 h	0.32	0.5 µg/mL (≈ 1.21 µM)	740 ng·h/mL	72 mL/min/kg	1.7 L/kg	1 µg/mL (≈ 2.42 µM)	0.5 µg/mL (≈ 1.21 µM)	2300 ng·h/mL	0.5 µg/mL (≈ 1.21 µM)	0.25 µg/mL (≈ 0.606 µM)	130 µg/mL (≈ 315 µM)	0.008 µg/mL (≈ 0.0194 µM)	> 64 µg/mL	0.125 µg/mL (≈ 0.303 µM)
